Results on one compound are retold here after patent US20050044581A1, “Animals and cells containing a mutated alpha2/omega1 gene” (priority 2003, published 2005).

The subject of test [1] is α2/δ1 R217A wild type and homozygous mice. The test is described as follows: Tail Suspension Test (TST). As to conditions: R217A mutant vs wildtype mice; dosed 120 minutes prior; FIG. 5. Format: in vivo, mouse. How it is done:
Male α2/δ1 R217A wild type and homozygous mice, weighing 22-35 grams, were used for testing. Animals were maintained on a 12 hour light/dark cycle with food and water available ad libitum. Animals were food deprived overnight the day before testing. On test day, animals were placed by groups of 8 into holding cages to acclimate for sixty minutes prior to dosing. Vehicle or pregabalin was administered 120 minutes prior to testing at a dose volume of 10 mL/kg. At test time, a piece of transparent tape was placed around the distal portion of the tail. The tape was then attached to a hook connected to an electro-mechanical apparatus that recorded the amount of time a mouse moved and the force used during movement. The hook was located at the top of a 24×18 cm testing chamber. Animals were completely suspended in air approximately 5 cm off the floor of the chamber for six minutes. Mean time of struggling and force of movement were then calculated for each group of eight.
Animals are placed by groups of eight into holding cages to acclimate for thirty to sixty minutes prior to dosing. Treatments are generally administered 60 to 120 minutes prior to testing, although this also varies with specific compounds. At test time, a piece of scotch tape is placed around the distal portion of the tail. […]

For test [2], the system named is WT, HET and KI R217A mice and parent strains. The test is described as follows: Vogel water-lick conflict. Format: in vivo, mouse. The note with it: for minimally effective dose (MED), Vogel: IP (doses tested in mg/kg); for anxiolytic-like effect / punished licking, Vogel: R217A knockins (homozygous). Here is the method:
Two strains used to generate the mutant mice, C57BU6J (Jackson Laboratories), and 129S6/SvEV (Taconic Farms), were also evaluated. Albino or C57BL/6J-Tyr were also included in the experiments for comparison purposes. Male C57BL/6J (Jackson Laboratories), and 129S6/SvEV (Taconic Farms) mice were received at 8 weeks old in quantities sufficient for each study to be completed in one experiment. Parent strains were housed one week prior to testing. All animals were housed in a temperature and humidity controlled room under a 12L: 12D schedule (lights on @06:00 h). All mice were housed in isolators (3-5/cage) with the exception of C57BU6J mice that were housed on wire racks (12/cage).
On the side of each chamber (1.5 in. above the floor) a module optical lickometer was mounted. The lickometer was used to measure licking from a drink tube attached to a water bottle mounted on the exterior of the chamber. A photo beam was piped via glass rods across a gap at the end of the drink tube. The subject's tongue breaks the beam when it drinks from the tube and each lick was automatically recorded. […] The reduced chamber space limited the animal's activity and directed behavior towards the drink tube during a 10-minute session. The front and back of the test chamber was made of clear Plexiglas. The front door was covered to reduce distractions from inside the test room. The back of the test chamber faced a wall, away from the flow of traffic in the testing room, and remained uncovered to provide the opportunity for observations. Shock was delivered between the grid floor and the drink tube using a (Coulbourn) programmable universal shocker for a duration of one second, but terminated immediately when contact between the animal and drink tube was broken.
PROCEDURE: On day one, after 24 hours of water deprivation, experimental subjects were placed in the test chambers and allowed to drink unpunished for a 10-minute training session. Mice were required to complete a 100-150 lick criteria during the training session. Subjects that completed the training criteria prior to the end of the 10-minute session were removed so that drinking was restricted in all subjects to 25% of their total daily intake. […] Immediately after the day one session mice were returned to their home cages and deprived of water and food for an additional 24 hours. On test day two, mice were dosed by intraperitoneal (IP) injection with vehicle or test compound. After a 60 or 120-minute absorption period mice were placed into the test chambers for a 10-minute test session. During the test, shock was delivered on a fixed ratio (FR) 10 schedule. Therefore, after every 10th lick the subject received a mild shock. […] A low number of shock episodes accepted reflects anxiety-related behavior. Standard anxiolytic drugs produce effects that allow mice to overcome the behavioral inhibition and drink despite the shock. […] All data were analyzed using a one-way ANOVA/Dunn's Method.
DRUGS: Pregabalin was dissolved in physiological saline for all experiments. The positive control diazepam was suspended in 2% cremophor in physiological saline. All drugs were dosed in a volume of 10 mL/kg.
C57BL/6J mice were tested at 0.4 mA, C57BL/6J-Tyr mice were tested at 0.1 mA and 129S6/SvEV mice were tested at 0.6 mA. Each dose-response study included a no-shock vehicle control group directly compared to the concurrent vehicle punished-responding group to evaluate the suppression of drinking. […] For all experiments, sedation was noted when both symptoms of ataxia (unsteady gait) and a reduced response to handling were observed after dosing and described as mild, moderate or severe.
WT mice were tested at 0.1 mA, HET mice were tested at 0.4 mA and KI mice were tested at 0.7 InA. Each experiment included a no-shock vehicle control group for direct comparison to the concurrent vehicle punished-responding group to determine percent suppression of drinking.

For the compound `CC(C)C[C@H](CN)CC(=O)O` [pregabalin], the “effect in Tail Suspension Test” value in test [1] is recorded as “exerts its sedative and/or anxiolytic effect in TST through the α2/δ1 polypeptide”. The “minimally effective dose (MED), Vogel” value is 32 in test [2] (129S6/SvEv, shock 0.6 mA); 10 in test [2] (C57BL/6J, shock 0.4 mA); 10 in test [2] (C57 albino, shock 0.1 mA); 10 in test [2] (Hets, shock 0.4 mA); “inactive” in test [2] (Knockins, shock 0.7 mA); 32 in test [2] (Wild Type, shock 0.1 mA). Moreover, the “increase in punished responding @ 100, Vogel” value in test [2] (Knockins, dose 100) is on record as “non-significant”. Besides, the “anxiolytic-like effect / punished licking, Vogel” value is “does not produce a statistically significant increase” in test [2]; “Pregabalin did not produce a significant anxiolytic-like effect in R217A knockins, and no evidence was obtained relating phenotype to particular parent strain” in test [2] (listed as Pregabalin).
